Results reported in patent publication EP2548557A1, “Reserpine to treat cognitive faults of the central nervous system” (Dr. Loges + Co. GmbH, priority 2011, dated 2013).

Tests used:
[1] = tested on: ionotrope AMPA-Rezeptoren; assay: Hippocampus slice preparation: suppression of the reserpine effect by a glutamate receptor antagonist (AMPA); type: cell-based, Ratte; details: co-superfusion of antagonist with Reserpin; multiple stimuli
Source text: (§1) Wirkungen von Reserpin auf die Erregbarkeit der Pyramidenzellen wurden im Hippokampus-Schnittpräparat der Ratte bestimmt. Die Analyse der Wirkungen erfolgte auf zwei Ebenen. Zunächst wurde anhand der Applikation von Einzelreizen die normale Erregbarkeit überprüft und anschließend nach einer sog. "Theta-burst-Stimulation" die Auswirkungen auf die Langzeitpotenzierung gemessen. Im nächsten Schritt wurde versucht, die Wirkung von Reserpin mit Hilfe von verschiedenen Rezeptor-spezifischen Glutamat Antagonisten zu unterdrücken.
(§2) Desweiteren wurde die Erregbarkeit der Pyramidenzellen in der Ausgangslage durch Superfusion mit einem Glutamat Rezeptor Antagonisten verändert. In der Folge wurde dann gleichzeitig Reserpin mit den verschiedenen Antagonisten zusammen superfundiert, um eine antagonistische Wirkung zu erkennen.
(§3) Dieselbe Versuchsanordnung wurde noch einmal genutzt, um in Gegenwart verschiedenster Glutamat Rezeptor Antagonisten Hinweise für eine Interaktion zwischen Reserpin und einem der Glutamat-Rezeptoren (GluR5 Kainate steht dabei für den ionotropen GluR5 Kainate-Rezeptor, Glu NMDA - für ionotrope NMDA-Rezeptoren, Glu AMPA - für ionotrope AMPA-Rezeptoren, und Glu II - für metabotrope Gruppe II Rezeptoren) zu erhalten (Abb. 5 und Abb.6).
(§4) Es wurden vier Antagonisten getestet. Dabei steht UB 301 für den Kainate-Rezeptor-Antagonisten UBP 301, CAS-Nr. 569371-10-4, der Formel [drawing 2] […]

[2] = tested on: Pyramidenzellen im Hippokampus-Schnittpräparat; assay: Population spike of pyramidal cells and long-term potentiation in hippocampus slice preparation in vitro; type: cell-based, Ratte; details: 0,025-0,1 µg/Liter Reserpin, n=4 slices
Source text: Zunächst wurde anhand der Applikation von Einzelreizen die normale Erregbarkeit überprüft und anschließend nach einer sog. "Theta-burst-Stimulation" die Auswirkungen auf die Langzeitpotenzierung gemessen.
Das Experiment selbst wurde in einer sog. "Base Unit" mit Haas Top" (Firma Medical Systems Corp., USA) bei 35 Grad Celsius durchgeführt. Der mit Hilfe peristaltischer Pumpen (Infusomat B. Braun Melsungen AG) superfundierte Hippokampus-Schnitt lag auf einem Stück Gaze. Eingeleitetes Carbogen hielt die erforderliche Sauerstoffzufuhr der Lösung aufrecht. Die Durchflussgeschwindigkeit betrug 200 ml/h.
Dabei wurde der Schnitt zunächst mit Kontrolllösung superfundiert. […] Jeder Schnitt wurde jeweils nur zu einem Experiment benutzt.
Die Ableitung der evozierten Antwort erfolgte in 10-minütigem Abstand extrazellulär mit einer gezogenen Glaskapillare (Elektrodenpuller, Rhema Labortechnik, DE). Das Antwortsignal wurde verstärkt (Verstärker "LMI", List Electronics, Darmstadt, DE) mit einem Laborrechnersystem Labteam (Software NeuroTool, MediSyst GmbH, Linden DE) analog digital gewandelt (Auflösung 12 Bit) und ausgewertet. Nach Auffinden eines geeigneten Signals (Amplitudenhöhe etwa 1 mV) wurde die Amplitudenhöhe des Populationsspikes (SAP=Summenaktionspotential; Popspike) als Ausgangsgröße festgelegt. […]

[3] = tested on: Fischer-344 Ratten; assay: Tele-Stereo-EEG: changes of EEG frequencies (spectral power) after oral administration; type: in vivo, Ratte
Protocol: Die Veränderungen der EEG-Frequenzen wurde nach oraler Gabe von Lactosemonohydrat (Kontrolle/Vehikel) bzw. Verdünnungen von Reserpin in Lactosemonohydrat entsprechend 0,01, 0,02 oder 0,04 µg Reserpin/kg Körpergewicht) bestimmt.
Die Untersuchungen wurden analog der durch W. Dimpfel beschriebenen Methode (Dimpfel W Preclinical data base of pharmaco-specific rat EEG fingerprints (Tele-Stereo-EEG). Eur J Med Res (2003) 8: 199-207; auf dieses Dokument wird vollinhaltlich bezug genommen) folgendermaßen durchgeführt:
Zwölf männlichen erwachsenen Fischer-344 Ratten (Tag-Nacht konvertiert) wurden im Alter von 6 Monaten 4 bipolar konzentrische Elektroden zusammen mit einem Mikrostecker auf einer gemeinsamen Basisplatte implantiert. Der Stecker diente der Aufnahme eines 4-Kanal-Senders zur telemetrischen Übertragung der aus frontalem Kortex, Hippokampus, Striatum und Formatio Reticularis abgeleiteten Feldpotentiale. Die Signale wurden auf einem Computer System (Software "EEG-Analyse", Betriebssystem OS Science, Laborrechner "LabTeam" der Firma MediSyst, Linden, DE) in Echtzeit einer Fast-FourierTransformation unterworfen und die Leistungsdichtespektren jeweils über 60 Minuten gemittelt. Die Unterteilung der Spektren in 6 verschiedene Frequenzbereiche erlaubte die Erfassung pharmako-spezifischer Veränderungen in Bezug auf die jeweils vor Applikation gemessenen Vorwerte innerhalb dieser Frequenzbänder.
Zum Applikationsprotokoll der Substanzen: die Substanzen wurden oral 45 Minuten nach Beginn der Messungen (Vorwert) appliziert. Fünf Minuten später wurden die Messungen wieder gestartet, mindestens über die nächsten 5 Stunden kontinuierlich analysiert und in 60-minütigen Perioden zusammengefasst. Die Testsubstanz wurde in einer Dosierung von 0,01, 0,02 und 0,04 µg/kg appliziert. Die experimentelle Serie wurde mit der Applikation von Lactosemonohydrat (Kontrolle), die zu keiner auffälligen Änderung führte, begonnen (oberste Zeile in Abb. 1).
Der statistische Vergleich der Versuche zu den Ergebnissen, die nach Gabe des Vehikels gemessen wurde, erfolgte mit Hilfe des statistischen Tests nach Wilcoxon, Mann und Whitney auf der Basis der Veränderungen innerhalb der einzelnen Frequenzbänder in allen Hirnregionen als Variablen.

[4] = tested on: Pyramidenzellen im Hippokampus-Schnittpräparat; details: literature description (Dimpfel 1995) used as comparison; cited from earlier work
[5] = tested on: metabotrope Gruppe II Rezeptoren; assay: Hippocampus slice preparation: suppression of the reserpine effect by a glutamate receptor antagonist (metabotropic group II); type: cell-based, Ratte; details: co-superfusion of antagonist with Reserpin; single and multiple stimuli (Abb. 5, Abb. 6)
Source text: as §1, §2, §3, §4

## NS(=O)(=O)c1cccc2c1c([N+](=O)[O-])cc1[nH]c(=O)c(=O)[nH]c12 [NBQX]
[1]
  Unterdrückung der Wirkung von Reserpin durch Antagonist: auch eine Unterdrückung

## COC(=O)[C@H]1[C@H]2C[C@@H]3c4[nH]c5cc(OC)ccc5c4CCN3C[C@H]2C[C@@H](OC(=O)c2cc(OC)c(OC)c(OC)c2)[C@@H]1OC [Reserpin, (1S,2R,3R,4aS,13bR,14aS)-2,11-Dimethoxy-3-(3,4,5-trimethoxybenzoyloxy)-1,2,3,4,4a,5,7,8,13,13b,14,14a-dodecahydroindolo[2',3':3,4]pyrido[1,2-b]isochinolin-1-carbonsäuremethylester]
[2]; single stimuli of Schaffer collaterals
  Amplitude des Populationsspikes bei Einzelreizung: Konzentrations-abhängige Zunahme
[2]; theta-burst stimulation
  Auslösung der Langzeitpotenzierung durch TBS: Konzentrations-abhängig verbessert
[3]; 0.02 µg/kg, 35 - 65 min, linear discriminant analysis, 4 brain regions x 6 frequency bands, compared with Memantin, Rasagiline, Methylphenidat
  Frequenzmuster in der Diskriminanzanalyse im Vergleich zu Referenzmedikamenten: korreliert in auffälliger Weise mit den Mustern
[3]; oral, 0,01, 0,02 and 0,04 µg/kg
  Steigerung der Motilität der Tiere: nicht beobachtet
[3]; oral, 0,01, 0,02 and 0,04 µg/kg, frequency band most affected
  alpha2 Wellen (spektrale Leistung): Besonders stark waren die alpha2 Wellen betroffen
[3]; oral, 0,01, 0,02 and 0,04 µg/kg, frontal cortex, hippocampus, striatum, formatio reticularis, vs. vehicle Lactosemonohydrat, n=12
  spektrale Leistung in allen Frequenzbereichen (EEG): dosis-abhängigen Unterdrückung der spektralen Leistung in allen Frequenzbereichen

## CC12CC3CC(C)(C1)CC(N)(C3)C2 [Memantin]
[4]
  Langzeit-Potenzierung (LTP) bei multipler elektrischer Reizung: Steigerung der LTP

## NC1(C(=O)O)CCc2cc(P(=O)(O)O)ccc21 (racemic) [RS-Apica, (RS)-1-Amino-5-phosphono-indan-1-carbonsäure]
[5]
  Unterdrückung der Wirkung von Reserpin durch Antagonist: besonders ausgeprägt unterdrücken
